Oligonucleotides are written 5' to 3', each unit as a sugar letter and its base; * is a phosphorothioate linkage, no mark a phosphodiester; rarer units and linkages stand in square brackets, end groups in braces. Plain capitals give the bases only. m = 2'-O-methyl; f = 2'-fluoro
tested on: C3 mRNA; experiment: Dose response experiment (DRC), C3 mRNA knockdown in HeLa cells; type: cell-based, human; conditions: 10 concentrations from 100 nM in 6-fold dilution steps
Protocol: The top 12 siRNAs with the best activity at both doses were chosen to be tested in a dose response experiment (DRC). Dose-response experiments were done with siRNA in 10 concentrations transfected in quadruplicates, starting at 100 nM in 6-fold dilutions steps down to ˜10 fM. Mock transfected cells served as control in DRC experiments.
(§1) For each well, the target mRNA level was normalized to the respective GAPDH mRNA level. The activity of a given siRNA was expressed as percent mRNA concentration of the respective target (normalized to GAPDH mRNA) in treated cells, relative to the target mRNA concentration (normalized to GAPDH mRNA) averaged across mock transfected wells (DRCs).

| Substance | IC50 [nM] | IC80 [nM] |
| --- | --- | --- |
| 22 (sense mC*mC*fAmAmCmUfAfCfAmUmGfAmAmCmCmUfAmCmA; antisense mU*fG*mUmAmGmGmUmUmCmAmUmGmUfAmGmUmUmGmG*mU*mU; siRNA) [compound 22] | 0.246 |  |
| 9 (sense mA*mU*fCmGmGmAfUfCfUmUmCfAmCmCmGmUfCmAmA; antisense mU*fU*mGmAmCmGmGmUmGmAmAmGmAfUmCmCmGmAmU*mU*mU; siRNA) [compound 9] | 0.751 |  |
| 10 (sense mU*mC*fAmAmCmUfUfCfCmUmCfCmUmGmCmGfAmAmA; antisense mU*fU*mUmCmGmCmAmGmGmAmGmGmAfAmGmUmUmGmA*mU*mU; siRNA) [compound 10] | 0.172 |  |
| 1 (sense mU*mC*fAmAmCmUfCfAfCmCmUfGmUmAmAmUfAmAmA; antisense mU*fU*mUmAmUmUmAmCmAmGmGmUmGfAmGmUmUmGmA*mU*mU; siRNA) [compound 1] | 0.086 | 12.7 |
| 4 (sense mU*mC*fCmAmAmGfCfCfUmUmGfGmCmUmCmAfAmUmA; antisense mU*fA*mUmUmGmAmGmCmCmAmAmGmGfCmUmUmGmGmA*mU*mU; siRNA) [compound 4] | 0.208 | 11.8 |
| 16 (sense mC*mA*fAmUmGmAfCfUfUmUmGfAmCmGmAmGfUmAmA; antisense mU*fU*mAmCmUmCmGmUmCmAmAmAmGfUmCmAmUmUmG*mU*mU; siRNA) [compound 16] | 0.087 | 6.19 |

tested on: C3 mRNA; experiment: Dual dose screen, C3 mRNA knockdown in HepG2 cells (bDNA assay); type: cell-based, human; conditions: 0.1 nM siRNA, 24 h
Protocol: HepG2 cells were obtained from ATCC (ATCC in partnership with LGC Standards, Wesel, Germany, cat. #ATCC-HB-8065) and cultured in MEM Eagle (#M2279, Sigma-Aldrich, Germany), supplemented to contain 10% fetal calf serum (#1248D, Biochrom GmbH, Berlin, Germany), 1× non-essential amino acids (#K0293; Biochrom, Berlin, Germany), 4 mM L-Glutamine (#K0283, Biochrom, Berlin, Germany) and 100 U/ml Penicillin/100 μg/ml Streptomycin (#A2213, Biochrom GmbH, Berlin, Germany) at 37° C. in an atmosphere with 5% C02 in a humidified incubator.
For transfection of HepG2 cells with siRNAs, cells were seeded at a density of 15,000 cells/well into collagen-coated 96-well tissue culture plates (#655150, GBO, Germany). Transfection of siRNA was carried out with Lipofectamine RNAiMax (Invitrogen/Life Technologies, Karlsruhe, Germany) according to manufacturer's instructions for reverse transfection directly after seeding. In this experiment, a dual dose screen was performed with siRNAs in quadruplicates at 10 nM and 0.1 nM, respectively. siRNAs targeting Aha1 served at the same time as an unspecific control for C3 target mRNA expression and as a positive control to analyze transfection efficiency with regards to Aha1 mRNA level. Firefly-Luciferase and Renilla-Luciferase was used as a mock transfection.
After 24 h of incubation with siRNAs, medium was removed and cells were lysed in 150 μl Medium-Lysis Mixture (1 volume lysis mixture, 2 volumes cell culture medium) and then incubated at 53° C. for 30 minutes. bDNA assay (ThermoFisher QuantiGene RNA assays) was performed according to manufacturer's instructions with a probeset directed to human C3 (accession-#NM_000064 between base 106 and base 907 of the sequence) which had been designed by ThermoFisher Scientific, and synthesized by Metabion International AG, Planegg, Germany. Luminescence was read using 1420 Luminescence Counter (WALLAC VICTOR Light, Perkin Elmer, Rodgau-Jugesheim, Germany) following 30 minutes incubation at room temperature in the dark.
Aha1-siRNA served as an unspecific control for C3 mRNA expression and as a positive control to analyze the transfection efficiency by measuring Aha1 mRNA level by hybridization with an Aha1 probeset. The Aha-1 siRNA used had been formerly selected from a big set of candidate siRNAs, and is known to be very active in vitro and in vivo. Transfection efficiency for each 96-well plate was calculated by analysis of Aha1-knock-down with Aha1-siRNA (normalized to GapDH) compared to an unspecific control. […] Transfection efficiency with siAha1 at the 10 nM dose was about 90%, and the transfection efficiency at the 0.5 nM dose was about 85%.
as §1, with “Activity of the siRNAs was measured by the fluorescence or percent mRNA concentration of the respective targets. For” for “For”, “control wells.” for “mock transfected wells (DRCs).”

| Substance | KD @ 0.1 nM [%] |
| --- | --- |
| 22 (sense mC*mC*fAmAmCmUfAfCfAmUmGfAmAmCmCmUfAmCmA; antisense mU*fG*mUmAmGmGmUmUmCmAmUmGmUfAmGmUmUmGmG*mU*mU; siRNA) [compound 22] | 67 |
| 9 (sense mA*mU*fCmGmGmAfUfCfUmUmCfAmCmCmGmUfCmAmA; antisense mU*fU*mGmAmCmGmGmUmGmAmAmGmAfUmCmCmGmAmU*mU*mU; siRNA) [compound 9] | 63 |
| 10 (sense mU*mC*fAmAmCmUfUfCfCmUmCfCmUmGmCmGfAmAmA; antisense mU*fU*mUmCmGmCmAmGmGmAmGmGmAfAmGmUmUmGmA*mU*mU; siRNA) [compound 10] | 84 |
| 1 (sense mU*mC*fAmAmCmUfCfAfCmCmUfGmUmAmAmUfAmAmA; antisense mU*fU*mUmAmUmUmAmCmAmGmGmUmGfAmGmUmUmGmA*mU*mU; siRNA) [compound 1] | 68 |
| 4 (sense mU*mC*fCmAmAmGfCfCfUmUmGfGmCmUmCmAfAmUmA; antisense mU*fA*mUmUmGmAmGmCmCmAmAmGmGfCmUmUmGmGmA*mU*mU; siRNA) [compound 4] | 66 |
| 16 (sense mC*mA*fAmUmGmAfCfUfUmUmGfAmCmGmAmGfUmAmA; antisense mU*fU*mAmCmUmCmGmUmCmAmAmAmGfUmCmAmUmUmG*mU*mU; siRNA) [compound 16] | 67 |

same assay, conditions: 10 nM siRNA, 24 h

| Substance | KD @ 10 nM [%] |
| --- | --- |
| 22 (sense mC*mC*fAmAmCmUfAfCfAmUmGfAmAmCmCmUfAmCmA; antisense mU*fG*mUmAmGmGmUmUmCmAmUmGmUfAmGmUmUmGmG*mU*mU; siRNA) [compound 22] | 93 |
| 9 (sense mA*mU*fCmGmGmAfUfCfUmUmCfAmCmCmGmUfCmAmA; antisense mU*fU*mGmAmCmGmGmUmGmAmAmGmAfUmCmCmGmAmU*mU*mU; siRNA) [compound 9] | 91 |
| 10 (sense mU*mC*fAmAmCmUfUfCfCmUmCfCmUmGmCmGfAmAmA; antisense mU*fU*mUmCmGmCmAmGmGmAmGmGmAfAmGmUmUmGmA*mU*mU; siRNA) [compound 10] | 88 |
| 1 (sense mU*mC*fAmAmCmUfCfAfCmCmUfGmUmAmAmUfAmAmA; antisense mU*fU*mUmAmUmUmAmCmAmGmGmUmGfAmGmUmUmGmA*mU*mU; siRNA) [compound 1] | 92 |
| 4 (sense mU*mC*fCmAmAmGfCfCfUmUmGfGmCmUmCmAfAmUmA; antisense mU*fA*mUmUmGmAmGmCmCmAmAmGmGfCmUmUmGmGmA*mU*mU; siRNA) [compound 4] | 94 |
| 16 (sense mC*mA*fAmUmGmAfCfUfUmUmGfAmCmGmAmGfUmAmA; antisense mU*fU*mAmCmUmCmGmUmCmAmAmAmGfUmCmAmUmUmG*mU*mU; siRNA) [compound 16] | 92 |

Source: patent US20230095695A1, “RNAS FOR COMPLEMENT INHIBITION” (Apellis Pharmaceuticals, Inc., priority 2020, published 2023)
